Measurements reported in paper PMC8750417, “Intracellular Amplifiers of Reactive Oxygen Species Affecting Mitochondria as Radiosensitizers” (Cancers, 2021).
Values joined by “and” are separate entries in the source; they are usually repeats but may differ in a detail not shown here. Equal entries are not always repeated. Where two headings read alike, the source gives them in different places.

Legend:
BL-2 cells = test: Cell viability, MTT assay, BL-2; type: cell-based, human
Description: Determination of viability of cells in the presence of prodrugs and controls A2780 and BL-2 cells The medium was removed, and the cells were washed two times with DPBS, trypsinated, and resuspended in RPMI 1640 medium (A2780) supplemented with 5% FBS (for 24 h and 48 h assay) or 10% FBS (for 96 h assay) , 1% L-glutamine, and 1% penicillin/streptomycin.
A2780 cells: This suspension was spread in the wells of a 96 -well microtiter plate (25000 cells for A2780 per well per 100 μL) and left standing at 37 °C in the chamber filled with CO2 (5%) for overnight. Stock solutions of prodrugs of different concentra tions (1 μL, solvent dmso, final concentrations in wells were 2, 5, 10, 30, 50 μM) were added to the wells and incubated for specific periods of time. Four experiments were conducted for each concentration of the prodrug. Finally, 3-(4,5-dimethylthiazol-2-yl)-2,5-diphenyltetrazolium bromide (MTT, 20 μL of the solution prepared by dissolving MTT (5 mg) in DPBS buffer (1 mL)) was added to each well, incubated for 3 h, treated with sodium dodecyl sulfate (SDS) solution (90 μL, 10% solution in 0.01 M aqueous HC l), and incubated overnight. Afterward, the intensity of the absorbance at 590 nm was measured.
MTT is converted in live cells to blue dye with the absorbance maximum λ max at 590 nm.
The absorbance at 690 nm was taken as a baseline value. The baseline corrected absorbance at 590 nm (A(590 nm) − A(690 nm)) was applied to calculate the relative number of viable cells. IC50 values were determined by fitting the experimental data expressing the number of viable cells (%, Y-axis) versus drug concentration (μM, X-axis) with a line curve and the X-axis value corresponding to 50% viability was considered as IC50 value according to the line curve (Figure S50, Table S2).
BL-2 cells: The cells were centrifuged, the medium was removed, and the cells were washed two times with DPBS and re-suspended in RPMI 1640 medium containing 5% (48 h incubation) or 10% FBS (96 h incubation), 1% L-glutamine, and 1% penicillin/ streptomycin. This suspension was spread in the wells of a 96-well microtiter plate (50000 cells per well per 100 μL). Other steps were identical to those was described in determination of viability of adherent cells (given above) (Table S3).

ARPE-19 cells = test: Cytotoxicity MTT assay, ARPE-19; type: cell-based; details: read-out: 50% cell survival (EC50)
Description: Study of synergy of prodrugs with radiotherapy for SAS and FaDu cells
Optimization of concentration of prodrugs and controls / MTT assay
The MTT assay was also applied to assess the impact of various drugs (0.01-100 µM) on the viability of the two human head and neck squamous carcinoma cell (HNSCC) lines SAS and FaDu as well as retinal pigment epithelial ARPE-19 cells and human fibroblasts (HF). Cells were seeded into 96-well plates at concentrations of 4000 and 2000 cells per […]
h before exposure to the drugs. All drug dilutions were prepared from 20 mM stock solutions in DMSO. The final DMSO concentration was set to 0.5% in all sample s including control. After completion of the treatment, the wells were processed according to the routine MTT protocol as described above; the formazan absorbance was then measured on a Biotek Epoch Microplate Spectrophotometer at 590 nm and corrected for the background signal at 620 nm. N≥3 independent experiments were performed for each drug candidate, cell type and treatment interval. Cell survival was recorded as function of the drug concentration, and dose-response curves were fitted with the Boltzmann equation where appropriate. We calculated the half-maximal response (EC50) as well as the EC20 (80% survival) according to the line curve (see Tables S6-S8). EC20-values were used as a basis to select the compound-specific non-toxic drug concentrations for combination with radiotherapy.

SAS and FaDu cells = test: Semi-quantitative radiosensitization grade over SAS and FaDu; type: cell-based, human; design: key: no radiosensitization (“-”); weak effect or effect in one cell line only (“+/−”); clear/strong (“+”) radiosensitization; details: clonogenic survival with irradiation
Description: defined low density (150-300 cells in 1 ml per well). After 8 h of incubation to allow cell adherence, 50% of the supernatant was exchanged by media containing the respective prodrugs at 2x concentration and exposed for 48 h. Treatment was then terminated by medium removal, and cells were allowed to grow for a period of ≥5-6 cell divisions estimated from the cell line-specific doubling times of the respective untreated controls (~7 days for SAS and ~10 days for FaDu cells). Control cells were always handled in parallel to the treated cells and thus exposed to the corresponding DMSO concentration(s). After the defined growth intervals, cells were fixed, stained and colonies of >50 cells were manually counted at low magnification to calculate plating efficiencies as the number of counted colonies relative to the number of seeded cells. Drug effect on clonogenic survival was then estimated by normalizing the colony formation of control cells to 1 (Table S9).
The colony formation assay was also applied for monitoring radioresponse. Here, increasing numbers of single cells relative to the irradiation dose (0-10 Gy) were seeded into 6-well plates (150-2400 SAS cells/well and 300-4800 FaDu cells/well).
Cells were treated with the drugs upon attachment as described. The total period of drug exposure was 48 h, and single dose irradiation was carried out 24 h after addition of the compounds. X-ray was performed at room temperature with a YxlonY.TU 320 system (Yxlon.international, 200 kV, 0.5 mm Cu filter) and a dose rate of ~1.3 Gy/min. Drug exposure was terminated by medium exchange and cultures were then incubated for the additional time period highlighted earlier.
Plating efficiencies were assessed and normalized for each treatment arm to the respective unirradiated control. Data were reproduced (N=3 each with n=3 wells per experiment and treatment condition). The relative clonogenic cell survival (= survival fraction, SF) was then plotted as function of the irradiation dose, and clonogenic survival curves were fitted employing the linear quadratic model as described

In the case of CC1(C)OB(c2ccc(COC(=O)N(Cc3cn(Cc4ccc(Cn5cc(Cc6ccccc6)nn5)cc4)nn3)[c-]3cccc3)cc2)OC1(C)C.[Fe+2].c1cc[cH-]c1 [2c], the IC50 (BL-2 cells; BL-2, 48 h incubation) is reported as 40.1 ± 6.4 µM, the IC50 (BL-2 cells; BL-2, 96 h incubation) is reported as 5.7 ± 2.7 µM and the EC50 (ARPE-19 cells; ARPE-19, 24h) is reported as greater than 50 µM. For the same compound, the EC50 (ARPE-19 cells; ARPE-19, 48h) was greater than 50 µM, the Radiosensitization (SAS and FaDu cells; 10 µM) was “+/−” and the Radiosensitization (SAS and FaDu cells; 25 µM) was “+”.
Work on CC1(C)OB(c2ccc(COC(=O)N(Cc3cccc(CN4CCCCC4)c3)[c-]3cccc3)cc2)OC1(C)C.[Fe+2].c1cc[cH-]c1 [5b] yielded an IC50 (BL-2 cells; BL-2, 48 h incubation) of 5 ± 2 µM, an IC50 (BL-2 cells; BL-2, 96 h incubation) of 5 ± 3 µM and an EC50 (ARPE-19 cells; ARPE-19, 24h) of 40.4 ± 2.5 µM. For the same compound, the EC50 (ARPE-19 cells; ARPE-19, 48h) was 26.6 ± 8.3 µM, the Radiosensitization (SAS and FaDu cells; 1 µM) was “+” and the Radiosensitization (SAS and FaDu cells; 2.5 µM) was “+”.
With CCOC(=O)CCCCCn1cc(CN(C(=O)OCc2ccc(B3OC(C)(C)C(C)(C)O3)cc2)[c-]2cccc2)nn1.[Fe+2].c1cc[cH-]c1 [compound 1] the IC50 (BL-2 cells; BL-2, 48 h incubation) was 35 ± 2 µM and the IC50 (BL-2 cells; BL-2, 96 h incubation) was 16.9 µM and 17 µM.
For [Fe+2].c1cc[cH-]c1.c1cc[cH-]c1 [compound 6, ferrocene], the IC50 (BL-2 cells; BL-2, 48 h incubation) was greater than 100 µM, the IC50 (BL-2 cells; BL-2, 96 h incubation) was greater than 100 µM and the EC50 (ARPE-19 cells; ARPE-19, 24h) was greater than 50 µM. For the same compound, the EC50 (ARPE-19 cells; ARPE-19, 48h) was greater than 50 µM and the Radiosensitization (SAS and FaDu cells; 25 µM) was “-”.
